Results published in US11407719B2, “Anti-inflammatory agents” (Resverlogix Corp., priority 2009, dated 2022).

Key:
hIL-6 mRNA = test: Quantification of hIL-6 mRNA; assay type: cell-based, human; parameters: key: Active: an active compound is one that causes a ≥20% inhibition in IL-6 mRNA at a concentration less than or equal to 10 μM; settings: IL-6 mRNA by real-time PCR; differentiated U937 cells, 1 h pretreatment, lipopolysaccharide stimulation 3 h; concentration ≤10 μM
Summary of the method: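 U937 cells, differentiated for 3 days, were pretreated with compound for 1 h and then stimulated with E. coli LPS for 3 h at 37 °C. IL-6 mRNA was quantified by one-step qRT-PCR, with Ct normalized to an internal control, and fold induction was expressed relative to control.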

VCAM-1 mRNA = test: Quantification of hVCAM mRNA; assay type: cell-based, human; parameters: key: Active: an active compound is one that causes a ≥20% inhibition in VCAM-1 mRNA at a concentration less than or equal to 10 μM; -1 mRNA at a concentration less than or equal to 10 μM; settings: VCAM-1 mRNA by real-time PCR; HUVECs, 1 h pretreatment, tumor necrosis factor-α stimulation 24 h; concentration ≤10 μM
Description: In this example, […] in tissue culture cells was quantitated to measure the transcriptional inhibition of hVCAM when treated with a compound of the invention.
Human umbilical vein endothelial cells (HUVECs) were plated in a 96-well plate (4.0×10^3 cells/well) in 100 μL EGM media and incubated for 24 h prior to the addition of the compound of interest. The cells were pretreated for 1 h with the test compound prior to stimulation with tumor necrosis factor-α. The cells were incubated for an additional 24 h before the cells were harvested. At time of harvest, the spent media was removed from the HUVECs and rinsed in 200 μL PBS. Cell lysis solution (70 μL) was then added the cells in each well and incubated for ˜5-10 min at room temperature, to allow for complete cell lysis and detachment. mRNA was then prepared using the “mRNA Catcher PLUS plate” (Invitrogen), according to the protocol supplied. After the last wash, as much wash buffer as possible was aspirated without allowing the wells to dry. Elution buffer (E3, 70 μL) was then added to each well. mRNA was then eluted by incubating the mRNA Catcher PLUS plate with elution buffer for 5 min at 68° C. and then immediately placing the plate on ice.
The eluted mRNA so isolated was then used in a one-step quantitative real-time PCR reaction, using components of the Ultra Sense Kit together with Applied Biosystems primer-probe mixes. Real-time PCR data was analyzed, normalizing the Ct values for hVCAM to an internal control, prior to determining the fold induction of each unknown sample, relative to the control.

melting point [°C]	Compound	Inhibition of IL-6 expression (hIL-6 mRNA)	Inhibition of VCAM-1 expression (VCAM-1 mRNA)
291 to 292	COc1cc(OC)c2c(=O)[nH]c(-c3cc(C)nc(C)c3)nc2c1 [2-(2,6-Dimethylpyridin-4-yl)-5,7-dimethoxyquinazolin-4(3H)-one]	Active	
228.8 to 230.4	COCCOc1cc(OC)c2c(=O)[nH]c(-c3cc(C)nc(C)c3)nc2c1 [2-(2,6-Dimethylpyridin-4-yl)-5-methoxy-7-(2-methoxyethoxy)quinazolin-4(3H)-one]	Active	
229 to 230	Cc1cc(-c2nc3ccc(CN4CCN(C)CC4)cc3c(=O)[nH]2)cc(C)n1 [2-(2,6-Dimethylpyridin-4-yl)-6-((4-methylpiperazin-1-yl)methyl)quinazolin-4(3H)-one]	Active	
65 to 68	Cc1cc(-c2nc3cc(OC(C)C)cc(OC(C)C)c3c(=O)[nH]2)cc(C)c1OCCN1CCCC1 [2-(3,5-Dimethyl-4-(2-(pyrrolidin-1-yl)ethoxy)phenyl)-5,7-diisopropoxyquinazolin-4(3H)-one]	Active	
181 to 182	Cc1cc(C)c2c(=O)[nH]c(-c3cc(C)c(OCCN4CCCC4)c(C)c3)nc2c1 [2-(3,5-Dimethyl-4-(2-(pyrrolidin-1-yl)ethoxy)phenyl)-5,7-dimethylquinazolin-4(3H)-one]	Active	
109 to 111	COc1cc(OC)c2c(=O)n(CCCN3CCCC3)c(-c3cc(C)c(OCCCN4CCCC4)c(C)c3)nc2c1 [2-(3,5-Dimethyl-4-(3-(pyrrolidin-1-yl)propoxy)phenyl)-5,7-dimethoxy-3-(3-(pyrrolidin-1-yl)propyl)quinazolin-4(3H)-one]	Active	
204 to 205	COc1cc(OC)c2c(=O)[nH]c(-c3cc(C)c(OCCN4CCC4)c(C)c3)nc2c1 [2-(4-(2-(Azetidin-1-yl)ethoxy)-3,5-dimethylphenyl)-5,7-dimethoxyquinazolin-4(3H)-one]	Active	
284 to 286	COc1cc(OC)c2c(=O)[nH]c(-c3ccc(N4CCC(O)CC4)cc3)nc2n1 [2-(4-(4-Hydroxypiperidin-1-yl)phenyl)-5,7-dimethoxypyrido[2,3-d]pyrimidin-4(3H)-one]	Active	
295 to 296	COc1cc(OC)c2c(=O)[nH]c(-c3ccc(Cc4nnn[nH]4)cc3)nc2c1 [2-(4-((1H-Tetrazol-5-yl)methyl)phenyl)-5,7-dimethoxyquinazolin-4(3H)-one]	Active	
225 to 227	COCCOc1cc(OC)c2c(=O)[nH]c(-c3ccc(N4C[C@@H](C)N(C(C)=O)[C@@H](C)C4)cc3)nc2c1 [2-(4-((3R,5S)-4-Acetyl-3,5-dimethylpiperazin-1-yl)phenyl)-5-methoxy-7-(2-methoxyethoxy)quinazolin-4(3H)-one]	Active	
	COc1cc(OC)c2c(=O)[nH]c(-c3ccc(N4CCC(NC(C)=O)CC4)cc3)nc2c1 [N-(1-(4-(5,7-Dimethoxy-4-oxo-3,4-dihydroquinazolin-2-yl)phenyl)piperidin-4-yl)acetamide]	Active	Active
	COc1cc(OC)c2c(=O)[nH]c(-c3ccc(N4CCC(NC(=O)c5ccccc5)CC4)cc3)nc2c1 [N-(1-(4-(5,7-Dimethoxy-4-oxo-3,4-dihydroquinazolin-2-yl)phenyl)piperidin-4-yl)benzamide]	Active	Active
	COc1cc(OC)c2c(=O)[nH]c(-c3ccc(N4CCC(NC(C)=O)C4)cc3)nc2c1 (centres unmarked) [N-(1-(4-(5,7-Dimethoxy-4-oxo-3,4-dihydroquinazolin-2-yl)phenyl)pyrrolidin-3-yl)acetamide]	Active	Active
